In PMC10609904 (Pharmaceuticals, 2023):
Like-named read-outs stand apart in the source and are kept apart here.

Tests used:
[1] = target: T1, acetylcholinesterase (AChE) (Electrophorus electricus, UniProt O42275); test: biochemical
T1 construct: purchased Sigma Aldrich
Description: The anti-Alzheimer impact was assessed in vitro utilizing the key enzyme acetylcholinesterase inhibition assay, as described in an earlier study. In detail, 120 μL of phosphate buffer, 60 μL of tested sample, and 60 μL of enzymatic solution (0.5 mM) were mixed and incubated for fifteen minutes at 25 °C in a 96-well plate. This was followed by the addition of 30 μL of 5,5′-dithiobis-2-nitrobenzoic acid (0.003 M) and 40 μL of acetylthiocholine iodide (0.002 M). The reaction mixture was kept in an incubator at 25 °C for ten minutes. The absorbance of the solution was measured at 415 nm. Berberine chloride was used as a standard inhibitor of the enzyme.
(§1) All chemical assays were conducted in triplicate. […] The IC50 value (half-maximal inhibitory concentration of samples) was determined via a standard equation constructed by the inhibitory activity (%) and the respective concentration of the tested sample.

[2] = ABTS radical-scavenging activity assay
Description: (§2) The DPPH radical scavenging assay and the ABTS assay were used to assess anti-oxidant activity, as previously described in detail by Nguyen et al.. In a 96-well plate, 100 μL of samples (at various concentrations) or distilled water (blank sample) were combined with 25 μL of 0.75 mM DPPH solution (dissolved in methanol). After that, the plates were kept in complete darkness for 30 min. Subsequently, the absorbance was determined at a wavelength of 517 nm. For the ABTS radical-scavenging activity assay, test samples (at various concentrations) were mixed with pre-diluted ABTS solution (reaching an optical density of 0.7). The reaction was allowed to occur for 10 min at room temperature. The absorbance was measured at 734 nm. Ascorbic acid was used as positive control.
as §1

[3] = DPPH radical scavenging assay
Description: as §2, §1

T1 sequence (O42275 24-633): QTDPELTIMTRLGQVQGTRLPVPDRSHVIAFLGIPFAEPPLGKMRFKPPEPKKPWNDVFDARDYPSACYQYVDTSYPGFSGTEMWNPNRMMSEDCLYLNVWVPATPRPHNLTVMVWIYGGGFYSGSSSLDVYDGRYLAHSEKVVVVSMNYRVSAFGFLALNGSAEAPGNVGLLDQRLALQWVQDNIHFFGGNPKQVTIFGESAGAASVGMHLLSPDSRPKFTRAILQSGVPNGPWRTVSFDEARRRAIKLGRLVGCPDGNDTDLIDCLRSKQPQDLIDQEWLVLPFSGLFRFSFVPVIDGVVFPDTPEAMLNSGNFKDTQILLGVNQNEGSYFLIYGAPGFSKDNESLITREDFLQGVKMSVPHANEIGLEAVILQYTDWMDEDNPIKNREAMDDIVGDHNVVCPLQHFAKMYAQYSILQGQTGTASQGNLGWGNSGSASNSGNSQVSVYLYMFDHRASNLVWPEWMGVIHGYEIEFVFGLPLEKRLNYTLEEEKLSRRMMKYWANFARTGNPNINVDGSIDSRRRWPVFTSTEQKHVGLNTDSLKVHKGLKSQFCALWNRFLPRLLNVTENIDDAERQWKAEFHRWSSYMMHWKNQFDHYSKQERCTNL

`O=C(O)c1ccccc1O` [compound 8, Salicylic acid] gave an IC50 [1] of 405 µM.
In the case of `COc1cc(O)c2c(c1)oc(=O)c1c3cc(O)c(O)cc3oc21` [compound 1, Wedelolactone], the IC50 ([1]; read-out: AChE IC50 (converted)) is reported as 195 µM.
With `O=C1O[C@H]([C@@H](O)CO)C(O)=C1O` [Vitamin C, Ascorbic acid] the “ABTS IC50” value [2] was 23.0 ± 0.4 µg/mL and the “DPPH IC50” value [3] was 38.4 ± 0.5 µg/mL.
With `COc1ccc2cc3[n+](cc2c1OC)CCc1cc2c(cc1-3)OCO2` [compound 37, Berberine chloride] the IC50 [1] was 895 µM.
